The values that follow are results of earlier work, collected in patent US6238865A, “Simple and efficient method to label and modify 3'-termini of RNA using DNA polymerase and a synthetic template with defined overhang nucleotides” (Chen; Guangtian, priority 1998, dated 2001).

The series has as its target poly(A) polymerase (Saccharomyces cerevisiae, UniProt P29468). Particulars: cited from Lingner et al., J. Biol. Chem. 266:8741-8746, 1991, read-out: Km for ATP.

Chain of poly(A) polymerase (P29468 whole entry): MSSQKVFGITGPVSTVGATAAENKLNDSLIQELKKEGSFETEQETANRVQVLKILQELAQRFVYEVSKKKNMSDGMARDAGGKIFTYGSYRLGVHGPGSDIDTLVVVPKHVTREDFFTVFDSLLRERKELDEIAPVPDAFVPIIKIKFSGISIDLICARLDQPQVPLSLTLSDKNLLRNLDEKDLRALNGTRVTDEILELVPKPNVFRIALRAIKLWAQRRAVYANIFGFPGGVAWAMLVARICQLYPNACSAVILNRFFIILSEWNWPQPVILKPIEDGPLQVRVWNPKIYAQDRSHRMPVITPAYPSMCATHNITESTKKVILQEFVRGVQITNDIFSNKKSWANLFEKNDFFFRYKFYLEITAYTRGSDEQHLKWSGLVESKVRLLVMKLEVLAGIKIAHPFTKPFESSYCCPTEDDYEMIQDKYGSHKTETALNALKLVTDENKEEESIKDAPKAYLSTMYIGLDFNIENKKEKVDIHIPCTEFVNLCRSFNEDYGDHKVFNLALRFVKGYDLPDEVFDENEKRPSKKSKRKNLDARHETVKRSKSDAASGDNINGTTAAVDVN

Turning to `Nc1ncnc2c1ncn2[C@@H]1O[C@H](COP(=O)(O)OP(=O)(O)OP(=O)(O)O)[C@@H](O)[C@H]1O` [ATP], the Michaelis-Menten constant (Km) (commonly the substrate concentration at which the rate is half of its maximum) was 50 µM.
